Source: patent US20260365696A1, “INHIBITORS OF PTP1B / NCK1 INTERACTION AND METHODS OF MAKING AND USING SAME” (Radella Pharmaceuticals LLC, priority 2023, published 2026)
pKd: −log10 of the molar value.

Molecular target: T1, SH3-2 domain of NCK1 (Homo sapiens, UniProt P16333)
T1 construct: To amplify the NCK1 SH3-2 domain, the primers; 10xHis tag with TEV site (vector pSF-OXB20-NH2-10HIS) (N, cleaved yes); made in house; host or cells: E. coli C43(DE3)
Assay: Isothermal titration calorimetry (ITC) binding to NCK1 SH3-2 domain
Conditions: ITC, 25 °C, pH 8.0
Text: Human PTP1B cDNA (NM_002827) and human NCK1 cDNA (NM 006153) were obtained (Origene, MD, USA). PTP1B Primers were designed to amplify the ORFs with added homology to the cut vector (EcoRI-digested pSF-OXB20-NH2-10HIS) in the forward primer sequence. To amplify full-length PTP1B, the primers ptp1b_FL_fwd ([…]) (SEQ ID NO: 159) and ptp1b_FL_rev ([…]) (SEQ ID NO: 160) were used. To amplify truncations of PTP1B, the following primer pairs were used: ptp1b_FL-Fwd and one of Ptplb_323stop_rev (gtgcaggaggagttcgaatt[…]) (SEQ ID NO: 161), ptp1b_344stop_rev ([…]) (SEQ ID NO: 162) or ptp1b_278stop_rev([…]) (SEQ ID NO: 163). To amplify the NCK1 SH3-2 domain, the primers ncklsh32_fwd ([…]) (SEQ ID NO: 164) and ncklsh32_rev ([…]) (SEQ ID NO: 165) were used. The amplified fragments were purified using a DNA clean-up kit according to manufacturer's instructions (QIAquick PCR purification kit, Qiagen).
To produce and purify fusion proteins, a culture was inoculated with 1% of overnight-cultured inoculum. Protein expression was carried out under the conditions described above, scaled up as necessary. Cells expressing the recombinant proteins were harvested in 50 mL tubes by centrifugation and stored at −80 °C. Cells containing the expressed gene product were thawed over ice and resuspended in Extraction buffer (10 mM Tris, pH 7.4 or 10 mM Sodium Phosphate, pH 8.0; 300 mM NaCl, 1 mM DTT or TCEP; 0-10% glycerol and 1 μg lysozyme) and sonicated over ice (4 °C) for 3 min total using pulses of 5 s with 15 s intervals, using a wide probe at 15 amplitude microns (Soniprep 150, MSE). Insoluble material was removed from the lysate by centrifugation at 20K rpm for 20-60 min at 4 °C. Supernatant was filtered through a 0.22 μm PVDF filter membrane and applied to 1-2 5 mL HisTrap FF Crude (Cytiva) prepacked Ni columns and connected to an AKTA explorer. After thorough washing with binding buffer (10 mM Tris, pH 7.4 or 10 mM Sodium Phosphate, pH 8.0; 300 mM NaCl; 1 mM DTT or TCEP and 25 mM Imidazole), protein was eluted using elution buffer (10 mM Tris, pH 7.4 or 10 mM Sodium Phosphate, pH 8.0; 150-300 mM NaCl; 1 mM DTT or TCEP and 250 mM Imidazole). Fractions containing protein of interest were confirmed by SDS PAGE. Protein was diluted with GF buffer (10 mM Tris, pH 7.4 or 10 mM Sodium Phosphate, pH 8.0; 150-300 mM NaCl) and subjected to TEV protease treatment overnight at 4-10 °C. Following proteolytic digestion, HIS-tag and TEV protease were removed by filtration through a clean 5 mL HisTrap FF Crude (Cytiva) prepacked Ni column. Protein was concentrated on a PES ultrafiltration device by centrifugation at 4000 rpm at 4 °C, and protein was polished via a HiPrep S-100 26/60 (Cytiva) using GF buffer (as described above). Purified proteins were concentrated using ultrafiltration, and protein concentration was determined using ultraviolet-visible spectroscopy. The integrity and identity of all proteins were verified by mass spectrographic analysis.
Isothermal titration calorimetry (ITC) was used to determine binding affinities for peptides against the SH3-2 domain of NCK1. Experiments were conducted at 25 °C using either a MicroCal iTC200 or MicroCal PEAQ-ITC calorimeter. The buffer used for all ITC experiments was 10 mM sodium [COMPOUND LEFT OUT] mM sodium chloride (pH=8.0). A series of peptides (concentration 3-7.5 mM) were titrated in to NCK1 SH3-2 domain (concentration 0.125-0.3 mM) using the following conditions: one injection of 0.2 μL followed by 19 injections of 2 μL, 120-150 seconds spacing between injections, at 25 °C. The data were fit using analysis software provided by the manufacturer and affinity values were calculated. The best fitting occurred when the number of sites was between 0.8 and 1.2. The experiments were repeated twice for a total of three times, and the average binding affinity for each peptide was generated. […]

[1] = Alanine scanning of the MD17 15-mer peptide
[2] = substitutions at position 3 of MD18
[3] = Sliding window peptide analysis
[4] = N- or C-terminal extensions, 30-mers tested one to three times

Substance	pKd [1]	pKd [2]	other results
Ac-PAVPPRP-NH2 [MH082, Ac-PAVPPRP-NH2, reference compound]	–	–	pKd (exemplary control peptides): < 3.00
Ac-PEHIPPPPRPPKR-NH2 [MH029]	–	–	pKd (Peptide truncation analysis): ≥ 3.52
Ac-PPAEHIPPPPRPPKR-NH2 [MSJ014]	≥ 3.52	–	–
Ac-PPCPPKR-NH2 [MH061, Ac-PPCPPKR-NH2]	–	≥ 3.52	–
Ac-PPDPPKR-NH2 [MH084, Ac-PPDPPKR-NH2]	–	≥ 3.52	–
Ac-PPEHIP-NH2 [MH040, Ac-PPEHIP-NH2]	–	–	pKd [3]: < 3.00
Ac-PPEHIPPPPRPPKR-NH2 [MH030]	–	–	pKd (Peptide truncation analysis): ≥ 3.52
Ac-PPEPPKR-NH2 [MH058, Ac-PPEPPKR-NH2]	–	≥ 3.52	–
Ac-PPFPPKR-NH2 [MH066, Ac-PPFPPKR-NH2]	–	≥ 3.52	–
Ac-PPGPPKR-NH2 [MH092, Ac-PPGPPKR-NH2]	–	3.00 to 3.22	–
Ac-PPHPPKR-NH2 [MH057, Ac-PPHPPKR-NH2]	–	≥ 3.52	–
Ac-PPIPPKR-NH2 [MH096, Ac-PPIPPKR-NH2]	–	≥ 3.52	–
Ac-PPKPPKR-NH2 [MH055, Ac-PPKPPKR-NH2]	–	≥ 3.52	–
Ac-PPLPPKR-NH2 [MH100, Ac-PPLPPKR-NH2]	–	≥ 3.52	–
Ac-PPMPPKR-NH2 [MH110, Ac-PPMPPKR-NH2]	–	≥ 3.52	–
Ac-PPNPPKR-NH2 [MH060, Ac-PPNPPKR-NH2]	–	≥ 3.52	–
Ac-PPPAHIPPPPRPPKR-NH2 [MSJ015]	≥ 3.52	–	–

Substance	pKd [1]	pKd [2]	other results
Ac-PPPEAIPPPPRPPKR-NH2 [MSJ016]	≥ 3.52	–	–
Ac-PPPEHAPPPPRPPKR-NH2 [MSJ017]	≥ 3.52	–	–
Ac-PPPEHIAPPPRPPKR-NH2 [MSJ018]	≥ 3.52	–	–
Ac-PPPEHIPAPPRPPKR-NH2 [MSJ019]	≥ 3.52	–	–
Ac-PPPEHIPPAPRPPKR-NH2 [MH001]	≥ 3.52	–	–
Ac-PPPEHIPPPARPPKR-NH2 [MH002]	< 3.00	–	–
Ac-PPPEHIPPPPAPPKR-NH2 [MH003]	≥ 3.52	–	–
Ac-PPPEHIPPPPRAPKR-NH2 [MH004]	≥ 3.52	–	–
Ac-PPPEHIPPPPRPAKR-NH2 [MH005]	< 3.00	–	–
Ac-PPPEHIPPPPRPPAR-NH2 [MH006]	≥ 3.52	–	–
Ac-PPPEHIPPPPRPPKA-NH2 [MH007]	< 3.00	–	–
Ac-PPPEHIPPPPRPPKRILE-NH2 [MH077]	–	–	pKd [4]: ≥ 3.52
Ac-PPPEHIPPPPRPPKRILEPH-NH2 [MH089]	–	–	pKd [4]: ≥ 3.52
Ac-PPPEHIPPPPRPPKRILEPHNGKCR-NH2 [MH134]	–	–	pKd [4]: ≥ 3.52
Ac-PPPEHIPPPPRPPKRILEPHNGKCREFFPN-NH2 [MH137]	–	–	pKd [4]: ≥ 3.52
Ac-PPPPPKR-NH2 [MH106, Ac-PPPPPKR-NH2]	–	≥ 3.52	–
Ac-PPPPRP-NH2 [MH037, Ac-PPPPRP-NH2]	–	–	pKd [3]: < 3.00
